Key:
BNP = assay: Western blot of BNP in heart tissue of high-fat diet mice; assay type: in vivo, C57BL/6 mice; conditions: groups 3 to 5 (5, 10, 25 mg/kg/day intraperitoneally) in comparison of group 2
Experimental: (§1) The male C57BL/6 mice at the age of 6 weeks were divided into 5 groups for 8 mice in each group. […]
(§2) Protein concentration of the extract was determined by Lowry's protein assay method. […]
(§3) The protein extraction of the mice heart tissues from the each group in example 2 were processed by the western blot method in example 3 to observe the expressions of the indicator of heart hypertrophy and heart failure. The results were shown at FIGS. 12 and 13, wherein the tubulin was used for an internal control in FIG. 12 and the expression levels of the ANP and BNP in the mice heart tissues from the each group was calculated basing on the expression level of tubulin in each figures of FIG. 13.

JNK = assay: Western blot of JNK in heart tissue of high-fat diet mice; assay type: in vivo, C57BL/6 mice; conditions: groups 3 to 5 (5, 10, 25 mg/kg/day intraperitoneally) versus group 2
Experimental: (§4) The male C57BL/6 mice at the age of 6 weeks were divided into 5 groups for 8 mice in each group. The each group of mice were feed at 24±2° C. of temperature, humidity of 55±10% and 12/12 light cycle for 8 weeks, wherein the group 1 was control group on a normal diet (PMI Nutrition International, Brentwood, Mo., USA) and injected 0.9% saline intraperitoneally; the group 2 was fed high-fat diet to induce the mice into heart hypertrophy model and injected 0.9% saline intraperitoneally; the group 3 was fed high-fat diet and the peptide of SEQ ID NO.:1 was injected intraperitoneally with the dose of 5 mg/kg/day; the group 4 was fed high-fat diet and the peptide of SEQ ID NO.:1 was injected intraperitoneally with the dose of 10 mg/kg/day; the group 5 was fed high-fat diet and the peptide of SEQ ID NO.:1 was injected intraperitoneally with the dose of 25 mg/kg/day. […]
as §2
(§5) The protein extraction of the mice heart tissues from the each group in example 2 were processed by the western blot method in example 3 to observe the expressions of p38α protein and JNK. The results were shown at FIGS. 8 and 9, wherein the tubulin was used for an internal control in FIG. 8 and the expression levels of p38α protein and JNK were calculated basing on the expression level of tubulin in each figure of FIG. 9.

cytochrome C = assay: Western blot of cytochrome C in heart tissue of high-fat diet mice; assay type: in vivo, C57BL/6 mice; conditions: groups 3 to 5 (5, 10, 25 mg/kg/day intraperitoneally) in comparison of group 2
Experimental: as §1, §2
(§6) The protein extraction of the mice heart tissues from the each group in example 2 were processed by the western blot method in example 3 to observe the expressions of related apoptosis regulatory proteins in the mice heart tissues from the each group. The results were shown at FIGS. 2 and 3, wherein the tubulin was used for an internal control in FIG. 2 and the expression levels of related apoptosis regulatory proteins were calculated basing on the expression level of tubulin in each figure of FIG. 3.

[1] = test system: STAT-3, IL-6, MEK-5 and ERK-5; assay: Western blot of related signal transduction proteins of heart hypertrophy in heart tissue of high-fat diet mice; assay type: in vivo, C57BL/6 mice; conditions: STAT-3, IL-6, MEK-5, ERK-5, groups 3 to 5 (5, 10, 25 mg/kg/day intraperitoneally) versus group 2
Experimental: as §1, §2
The protein extraction of the mice heart tissues from the each group in example 2 were processed by the western blot method in example 3 to observe the expressions of the related signal transduction proteins of heart hypertrophy including: STAT-3, IL-6, MEK-5 and ERK-5. The results were shown at FIGS. 6 and 7, wherein the tubulin was used for an internal control in FIG. 6 and the expression levels of the related signal transduction proteins of heart hypertrophy in the mice heart tissues from each group was calculated basing on the expression level of tubulin in FIG. 7.

myocardial cells = assay: H&E stained section of heart tissues of high-fat diet mice; assay type: in vivo; conditions: groups 3 and 4 (15 and 25 mg/kg/day intraperitoneally) in comparison with group 2
Experimental: The male C57BL/6 mice at the age of 6 weeks were divided into 5 groups for 8 mice in each group. The each group of mice were feed at 24±2° C. of temperature, humidity of 55±10% and 12/12 light cycle for 8 weeks, wherein the group 1 was control group on a normal diet (PMI Nutrition International, Brentwood, Mo., USA) and injected 0.9% saline intraperitoneally; the group 2 was fed high-fat diet to induce the mice into heart hypertrophy model and injected 0.9% saline intraperitoneally; the group 3 was fed high-fat diet and the peptide of SEQ ID NO.:1 was injected intraperitoneally with the dose of 5 mg/kg/day; the group 4 was fed high-fat diet and the peptide of SEQ ID NO.:1 was injected intraperitoneally with the dose of 10 mg/kg/day; the group 5 was fed high-fat diet and the peptide of SEQ ID NO.:1 was injected intraperitoneally with the dose of 25 mg/kg/day. The injection period of each group of mice was between the third week to the sixth week of feeding period. The high-fat diet contained 60% of energy as fat.
The feeding method was the same with example 1. Mice were divided into 4 groups for feeding at different conditions. The intraperitoneal injection was performed between the third week and the sixth week of the feeding period. […]

ANP = assay: Western blot of ANP in heart tissue of high-fat diet mice; assay type: in vivo, C57BL/6 mice; conditions: groups 3 to 5 (5, 10, 25 mg/kg/day intraperitoneally) in comparison of group 2
Experimental: as §1, §2, §3

p38α protein = assay: Western blot of p38α protein in heart tissue of high-fat diet mice; assay type: in vivo, C57BL/6 mice; conditions: groups 3 to 5 (5, 10, 25 mg/kg/day intraperitoneally) versus group 2
Experimental: as §4, §2, §5

caspase-3 = assay: Western blot of activated caspase-3 in heart tissue of high-fat diet mice; assay type: in vivo, C57BL/6 mice; conditions: groups 3 to 5 (5, 10, 25 mg/kg/day intraperitoneally) in comparison of group 2
Experimental: as §1, §2, §6

[2] = test system: FGF-2, ERK-1, UPA, MMP-2 and MMP-9; assay: Western blot of related proteins of cardiac fibrosis pathway in heart tissue of high-fat diet mice; assay type: in vivo, C57BL/6 mice; conditions: MMP-2, MMP-9, groups 3 to 5 (5, 10, 25 mg/kg/day intraperitoneally) versus group 2
Experimental: as §1, §2
The protein extraction of the mice heart tissues from the each group in example 2 were processed by the western blot method in example 3 to observe the expressions of the related proteins of cardiac fibrosis pathway including: FGF-2, ERK-1, UPA, MMP-2 and MMP-9. The results were shown at FIGS. 10 and 11, wherein the tubulin was used for an internal control in FIG. 10 and the expression levels of FGF-2, ERK-1, UPA, MMP-2 and MMP-9 in the mice heart tissues from the each group was calculated basing on the expression level of tubulin in each figures of FIG. 11.

calcineurin = assay: Western blot of calcineurin in heart tissue of high-fat diet mice; assay type: in vivo, C57BL/6 mice; conditions: groups 3 to 5 (5, 10, 25 mg/kg/day intraperitoneally) in comparison of group 2
Experimental: as §1, §2
(§7) The protein extraction of the mice heart tissues from the each group in example 2 were processed by the western blot method in example 3 to observe the expressions of nuclear factor of activated T-cells C3 (NFTA-C3) and calcineurin in the mice heart tissues from the each group. The results were shown at FIGS. 4 and 5, wherein the tubulin was used for an internal control in FIG. 4 and the expression levels of NFTA-C3 and calcineurin were calculated basing on the expression level of tubulin in each figure of FIG. 5.

[3] = test system: nuclear factor of activated T-cells C3 (NFTA-C3); assay: Western blot of NFTA-C3 in heart tissue of high-fat diet mice; assay type: in vivo, C57BL/6 mice; conditions: groups 3 to 5 (5, 10, 25 mg/kg/day intraperitoneally) in comparison of group 2
Experimental: as §1, §2, §7

Bcl-2 protein = assay: Western blot of Bcl-2 in heart tissue of high-fat diet mice; assay type: in vivo, C57BL/6 mice; conditions: groups 3 to 5 (5, 10, 25 mg/kg/day intraperitoneally) in comparison of group 2 (high-fat diet, saline)
Experimental: as §1, §2, §6

Question: With “SEQ ID NO.: 1: isolated peptide which amino acid sequence is SEQ ID NO.: 1; extracted from organisms, separated by hydrolysis or chemical synthesis (VHVV)” as the substance, how does the “expression levels of BNP in the heart tissues” value (BNP) read?
Answer: obviously decreased

Question: What about the “expression levels of JNK in the heart cells” value (JNK) of the same substance?
Answer: significantly lower

Question: And the “expression levels of cytochrome C in the heart cell” value (cytochrome C)?
Answer: obviously decreased

Question: And the “expression levels of the related signal transduction proteins of heart hypertrophy in the heart tissues” value [1]?
Answer: obviously lower

Question: What about the “arrangement of myocardial cells (H&E stained heart sections)” value (myocardial cells) of the same substance?
Answer: more orderly and closely

Question: What about the “expression levels of ANP in the heart tissues” value (ANP) of the same substance?
Answer: obviously decreased

Question: What about the “expression levels of p38α protein in the heart cells” value (p38α protein) of the same substance?
Answer: significantly lower

Question: What about the “expression levels of activated caspase-3 in the heart cell” value (caspase-3) of the same substance?
Answer: obviously decreased

Question: What about the “related proteins of cardiac fibrosis pathway in mice heart tissues” value [2] of the same substance?
Answer: obviously lower

Question: And the “expression levels of calcineurin in the heart cells” value (calcineurin)?
Answer: obviously decreased

Question: And the “expression levels of NFTA-C3 in the heart cells” value [3]?
Answer: obviously decreased

Question: What about the “expression levels of Bcl-2 in the heart cell” value (Bcl-2 protein) of the same substance?
Answer: obviously increased

From patent publication US20160304557A1, “Method for preventing or treating heart diseases by using a composition containing an isolated peptide” (Tunghai University, priority 2014, published 2016)
